In the OPERA property sets (Mansouri et al. 2018):

Row | logP | SMILES
1 | 0.94 | CC(=O)Nc1ccc(OCC(O)CNC(C)C)c(C(C)=O)c1 (configuration not stated)
2 | 2.02 | CC(=O)c1cc2cccc(OCC(O)CNC(C)C)c2o1 (configuration not stated)
3 | 2.3 | Cc1cc2c(OCC(O)CNC(C)C)cccc2[nH]1 (configuration not stated)
4 | 3.07 | CC(C)NCC(O)COc1ccccc1C1CC1 (configuration not stated)
5 | 2.32 | C#CCOc1ccccc1OCC(O)CNC(C)(C)C (configuration not stated)
6 | 3.67 | Cc1ccccc1OCC(O)CNCC(O)COc1ccccc1C (configuration not stated)
7 | 3.7 | CC(C)NC[C@H](O)COc1ccc(OCCOCCc2ccc(F)cc2)cc1
8 | 1.36 | CNC(=O)COc1ccccc1OCC(O)CNC(C)(C)C (configuration not stated)
9 | 1.69 | COc1ccccc1OCC(O)CNC(C)C (configuration not stated)
10 | 2.81 | CC(C)NCC(O)COc1ccc(CCOCC2CC2)cc1 (configuration not stated)
11 | 1.87 | CC(C)NCC(O)COc1ccc(COCCOC(C)C)cc1 (configuration not stated)
12 | 1.39 | CC(=O)Nc1ccc(OCC(O)CNCC(O)COc2ccccc2)cc1 (configuration not stated)
